Tests used:
Assay type in all cases: in vivo
[1] = system: Amaranthus retoflexus (AMARE); assay: Post-emergence glasshouse herbicide test, percentage damage to plant; conditions: POST Application, 125 g/ha, evaluated after 14 days
Procedure: (§1) Seeds of a variety of test species were sown in standard soil in pots (Amaranthus retoflexus (AMARE), Abutilon theophrasti (ABUTH), Digitaria sanguinalis (DIGSA), Setaria faberi (SETFA) and Zea mays (ZEAMX). After cultivation for 10 days under controlled conditions in a glasshouse (at 24/16° C., day/night; 14 hours light; 65% humidity), the plants were sprayed with an aqueous spray solution derived from the formulation of the technical active ingredient in 0.6 ml acetone and 45 ml formulation solution containing 10.6% Emulsogen EL (Registry number 61791-12-6), 42.2% N-methyl pyrrolidone, 42.2% dipropylene glycol monomethyl ether (CAS RN 34590-94-8) and 0.2% X-77 (CAS RN 11097-66-8). The test plants were then grown in a glasshouse under controlled conditions in a glasshouse (at 24/16° C., day/night; 14 hours light; 65% humidity) and watered twice daily. After 14 days the test is evaluated for the percentage damage caused to the plant. The biological activities are shown in the following table on a five point scale (5=80-100%; 4=60-79%; 3=40-59%; 2=20-39%; 1=0-19%).

[2] = system: Abutilon theophrasti (ABUTH); assay: as above; conditions: POST Application, 125 g/ha, evaluated after 14 days
Procedure: as §1

[3] = system: Digitaria sanguinalis (DIGSA); assay: as above; conditions: POST Application, 125 g/ha, evaluated after 14 days
Procedure: as §1

Setaria faberi (SETFA) = assay: as above; conditions: POST Application, 125 g/ha, evaluated after 14 days
Procedure: as §1

Zea mays (ZEAMX) = assay: Post-emergence glasshouse herbicide test, percentage damage to crop plant; conditions: POST Application, 125 g/ha, evaluated after 14 days; crop (corn)
Procedure: as §1

Row | SMILES | AMARE percentage damage caused to the plant (five point scale) [1] | ABUTH percentage damage caused to the plant (five point scale) [2] | DIGSA percentage damage caused to the plant (five point scale) [3] | SETFA percentage damage caused to the plant (five point scale) (Setaria faberi (SETFA)) | ZEAMX percentage damage caused to the plant (five point scale) (Zea mays (ZEAMX))
1 | Cc1cc(C(=O)C2=C([O-])CCCC2=O)c(=O)n(CCOC(=O)N2CCCC2)n1.[Na+] [Compound 1.024] | 4 (4=60-79%) | 2 (2=20-39%) | 5 (5=80-100%) | 5 (5=80-100%) | 1 (1=0-19%)
2 | CCN(CC)C(=O)OCCn1nc(C)cc(C(=O)C2=C([O-])CCCC2=O)c1=O.[Na+] [Compound 1.021] | 4 (4=60-79%) | 5 (5=80-100%) | 5 (5=80-100%) | 5 (5=80-100%) | 1 (1=0-19%)
3 | Cc1cc(C(=O)C2=C([O-])CCCC2=O)c(=O)n(CCC(=O)N(C)C)n1.[Na+] [Compound 1.002, sodium 2-[2-[3-(dimethylamino)-3-oxo-propyl]-6-methyl-3-oxo-pyridazine-4-carbonyl]-3-oxo-cyclohexen-1-olate] | 5 (5=80-100%) | 5 (5=80-100%) | 5 (5=80-100%) | 5 (5=80-100%) | 1 (1=0-19%)
4 | CN(C)C(=O)CCn1nc(C2CC2)cc(C(=O)C2=C([O-])CCCC2=O)c1=O.[Na+] [Compound 1.016] | 5 (5=80-100%) | 5 (5=80-100%) | 5 (5=80-100%) | 4 (4=60-79%) | 1 (1=0-19%)
5 | Cc1cc(C(=O)C2=C([O-])CC(C)(C)CC2=O)c(=O)n(CCOC(=O)N(C)C)n1.[Na+] [Compound 1.027] | 5 (5=80-100%) | 5 (5=80-100%) | 5 (5=80-100%) | 5 (5=80-100%) | 1 (1=0-19%)
6 | Cc1cc(C(=O)C2=C([O-])CCCC2=O)c(=O)n(C(C)C(=O)N(C)C)n1.[Na+] (stereo not drawn) [Compound 1.029] | 5 (5=80-100%) | 5 (5=80-100%) | 5 (5=80-100%) | 5 (5=80-100%) | 1 (1=0-19%)
7 | CCN(C)C(=O)OCCn1nc(C)cc(C(=O)C2=C([O-])CCCC2=O)c1=O.[Na+] [Compound 1.022] | 5 (5=80-100%) | 5 (5=80-100%) | 5 (5=80-100%) | 5 (5=80-100%) | 1 (1=0-19%)
8 | Cc1cc(C(=O)C2=C(O)CCCC2=O)c(=O)n(CC(=O)N(C)C)n1 [Compound 1.001] | 5 (5=80-100%) | 5 (5=80-100%) | 5 (5=80-100%) | 5 (5=80-100%) | 1 (1=0-19%)
9 | Cc1cc(C(=O)C2=C([O-])CC(C)CC2=O)c(=O)n(CCC(=O)N(C)C)n1.[Na+] (stereo not drawn) [Compound 1.010] | 5 (5=80-100%) | 5 (5=80-100%) | 5 (5=80-100%) | 5 (5=80-100%) | 1 (1=0-19%)
10 | CCN(C)C(=O)CCn1nc(C)cc(C(=O)C2=C([O-])CCCC2=O)c1=O.[Na+] [Compound 1.013] | 5 (5=80-100%) | 5 (5=80-100%) | 5 (5=80-100%) | 5 (5=80-100%) | 1 (1=0-19%)
11 | CCN(CC)C(=O)CCn1nc(C)cc(C(=O)C2=C(O)CCCC2=O)c1=O [Compound 1.007] | 5 (5=80-100%) | 5 (5=80-100%) | 5 (5=80-100%) | 5 (5=80-100%) | 1 (1=0-19%)
12 | CNC(=O)CCn1nc(C)cc(C(=O)C2=C(O)CCCC2=O)c1=O [Compound 1.006] | 5 (5=80-100%) | 4 (4=60-79%) | 5 (5=80-100%) | 5 (5=80-100%) | 1 (1=0-19%)
13 | Cc1cc(C(=O)C2=C([O-])CCCC2=O)c(=O)n(CC(F)(F)C(=O)N(C)C)n1.[Na+] [Compound 1.018] | 5 (5=80-100%) | 5 (5=80-100%) | 5 (5=80-100%) | 5 (5=80-100%) | 1 (1=0-19%)
14 | Cc1cc(C(=O)C2=C([O-])CC(C)CC2=O)c(=O)n(CCC(=O)N(C)CC(F)(F)F)n1.[Na+] (stereo not drawn) [Compound 1.020] | 4 (4=60-79%) | 5 (5=80-100%) | 5 (5=80-100%) | 5 (5=80-100%) | 1 (1=0-19%)
15 | Cc1cc(C(=O)C2=C(O)CCCC2=O)c(=O)n(CCC(=O)N2CCOCC2)n1 [Compound 1.004] | 5 (5=80-100%) | 5 (5=80-100%) | 5 (5=80-100%) | 5 (5=80-100%) | 1 (1=0-19%)

From patent US10881106B2, “Herbicidal pyridazinone compounds” (SYNGENTA PARTICIPATIONS AG, priority 2016, dated 2021)
